Data set [1] in a line: Postprandial plasma kinetics of monoterpenes after a single dose of Mastiha Oil (GC-MS-MS). The data set is classed as in vivo, human. The note with it: for Time of first detection in plasma: human plasma after 1 mL MO; for Area Under Curve: 1 mL MO oral single dose, linear trapezoidal method; for concentration at 24 h: 24 h after 1 mL MO; for Cmax / Tmax: healthy males, 1 mL MO oral single dose after overnight fasting; for concentration at 4 h: 4 h after 1 mL MO. The source says: An open label intervention trial was designed to assess the postprandial plasma levels of the main monoterpenes present in MO and their effect in antioxidant capacity. A kinetic approach was applied. Fifty apparently healthy male adults were screened. Ten volunteers were found eligible to the study according to specific criteria (Table 1). Eligible subjects were informed about the aims, methodology, expected effect and any risk from the Information Leaflet of the study, before signing an Informed Consent. The investigator explained that participation was voluntary and participants received a copy of the signed Informed Consent.
A Thermo Ultra GC-Thermo XLS Quantum GC-MS-MS Triple Quad with a DB-5 ms 30 × 0.25 × 0.25 capillary column (Merck KGaA, Darmstadt, Germany) was used. The sample was injected using a Programmed Temperature Vaporizing (PTV) injector that allows concentration of samples, using an automated sampler. Injection volume was 1 µL.
To be able to determine low ppb levels, a GC-MS-MS technique was performed. Signal to noise improves radically compared to traditional GC-MS methods. Full scan MS-MS was first employed in analytical standards which run individually to determine the parent and daughter ions and retention times were validated with the use of analytical standards which run individually.
Initial temperature was held at 50 °C for 2 min. Then temperature was ramped to 60 °C with a rate of 5 °C/min. The temperature reached 270 °C at a rate of 7 °C/min. Injector temperature was set at 250 °C. The splitless injected volume was 1 µL. At 1.2 min the splitless valve switched.
The MS-MS conditions were as follows: Parent Ion was m/z 93 and daughter ions were 91 and 77 for all compounds. Collision energy was set at 8 V and collision gas pressure was 1.5 mTorr. MS-MS scan time was set at 0.15 s. The peak width was maintained at 0.7 amu.
For sample preparation, a 1:1 mixture of ethyl-acetate:hexane was used and equal volumes of blood plasma and extractant were put in centrifuge tubes and vortexed for 20 min. The samples were then centrifuged and filtrated before injection.
To be able to determine low ppb levels, a GC-MS-MS technique was performed, which, compared to traditional GC-MS methods, improves signal to noise values and thus sensitivity in the identification of compounds. Full scan MS-MS was first employed in analytical standards which run individually to determine the parent and daughter ions of the three terpenes and their retention times. Identification of chromatographic peaks was accomplished by using the parent ion and most abundant daughter ion of each compound and comparing the retention times with those of reference standards. For quantification, blank plasma samples (collected prior to MO administration) were spiked with standard monoterpene solutions ([…]), and were treated identically to the samples, since the standard addition method used eliminates the matrix effect. The standard monoterpene solutions were prepared in ethyl acetate in the range 2–2000 μg/L by diluting stock solutions (1 mg/mL). In all preliminary tests the average recovery for the monoterpenes studied was >80% and the detection limit was 0.02 µg/L.
The maximum concentrations of monoterpenes (Cmax) and the time intervals (Tmax) were obtained from each participant’s plasma concentration–time curve. The area under the plasma concentration–time curve (AUC) was analysed using the Linear Trapezoidal method.

On the set-up of data set [2]: method as in PMID 29197300. The note with it: rats, oral administration; cited from earlier work.
The mark [3] stands for this setting: male, oral, human plasma, mean ± SEM.

Molecules are shown by their SMILES.

The term Cmax denotes the peak of the concentration-time curve. What is called Tmax is the time from dosing to the highest level. In the case of `C=CC(=C)CCC=C(C)C` [Myrcene, myrcene], the “Time of first detection in plasma” value in data set [1] turned out to be 0.5 h. Further, in data set [1] (human plasma, mean ± SEM), the “Area Under Curve” value is 15318.0 ± 7313.3 ng·h/mL. This compound also registered a concentration at 0.5 h in data set [1] (male, oral, human plasma, 0.5 h after 1 mL MO, mean ± SEM) of 775 ± 64 ng/mL. Further, the concentration at 2 h in data set [1] (male, oral, human plasma, 2 h after 1 mL MO, mean ± SEM) came to 906 ± 44.6 ng/mL. Further, in data set [1] (setting [3]), the concentration at 24 h is 648 ± 60.3 ng/mL. Besides, in data set [1] (male, human plasma, mean ± SEM), the concentration peaked (Cmax) at 967 ± 89.7 ng/mL and the Tmax came to 2.2 ± 1.7 h.

For the compound `CC1=CCC2CC1C2(C)C` (stereo not drawn) [α-Pinene, α-pinene], in data set [2], the “Time at which bioavailable in plasma” value is on record as 0.17 h and the “Time of peak concentration in plasma” value is given as 2.5 h. Moreover, in data set [1], the “Time of first detection in plasma” value is 0.5 h. For the same compound, the “Area Under Curve” value in data set [1] (human plasma, mean ± SEM) stood at 7865.2 ± 5547.3 ng·h/mL. In data set [1] (setting [3]), the concentration at 4 h stood at 839 ± 189 ng/mL and the concentration at 24 h is 80.6 ± 7.3 ng/mL. Moreover, in data set [1] (male, human plasma, mean ± SEM), the Cmax was 915 ± 551 ng/mL and the Tmax was found to be 3.8 ± 1.2 h.

As to `C=C1CCC2CC1C2(C)C` (stereo not drawn) [β-Pinene, β-pinene], the “Time of first detection in plasma” value in data set [1] is 0.5 h. Also, the “Area Under Curve” value in data set [1] (human plasma, mean ± SEM) was found to be 164.0 ± 110.8 ng·h/mL. Also, in data set [1] (setting [3]), the concentration at 4 h amounted to 16.7 ± 3.5 ng/mL and the concentration at 24 h was found to be 2.1 ± 0.3 ng/mL. Moreover, in data set [1] (male, human plasma, mean ± SEM), the Cmax amounted to 18 ± 10.7 ng/mL and the Tmax came out at 3.6 ± 0.9 h.

The values above are taken from paper PMC7466295, “An Absorption and Plasma Kinetics Study of Monoterpenes Present in Mastiha Oil in Humans” (Foods, 2020).
